{
  "source": "patent US10016383B2",
  "about": "“Inhibitors of metallo-β-lactamase-enzymes” (McMaster University, priority 2013, dated 2018)",
  "key": {"[1]": {"tested_on": "E. coli BW25113ΔbamBΔtolCΔaraDAB::pLac(blaNDM-1)", "test": "Cell-based screen for NDM-1 inhibitors with sub-lethal meropenem", "set-up": "species or system Escherichia coli", "details": "in combination with meropenem", "description": "A cell-based screen for inhibitors of the NDM-1 metallo-β-lactamase using a collection of natural product extracts derived from environmental microorganisms was performed. To increase the sensitivity of the screen to MBL inhibitor discovery a test strain of Escherichia coli BW25113 in which the bamB and tolC genes were independently deleted (E. coli BW25113ΔbamBΔtolC) was generated. BamB is involved in outer membrane porin assembly and disruption results in increased permeability to small molecules^19 and TolC is a part of the tripartite small molecule efflux systems such as AcrA-AcrB-TolC that serve to actively eliminate small molecules from the cell^20. Therefore, E. coli BW25113ΔbamBΔtolC increases the sensitivity of the screen to discovery of “hits”. This strain was further modified by integrating the blaNDM-1β-lactamase gene under control of the pLac promoter into the chromosome [E. coli BW25113ΔbamBΔtolCΔaraDAB::pLac(blaNDM-1)]. This strain was screened in the presence of a sub-lethal concentration of meropenem (of the minimum inhibitory concentration 0.125 μg/mL) in combination with ˜500 natural product extracts.\n˜500 natural product extracts were screened against E. coli BW25113ΔbamBΔto1CΔaraDAB::pLac(blaNDM-1) in combination with 0.125 μg/mL meropenem. […] Z′ was determined to be 0.77, indicating an excellent screening window^22."}, "IMP-7": {"tested_on": "IMP-7", "test": "Incubation of AM-A with metalloenzymes in Zn2+-depleted buffer", "format": "biochemical", "details": "extended incubation, AM-A 0.5 mM", "description": "20 μL of the above was diluted with 180 μL nitrocefin or FAPGG substrate for the following final concentrations: Enzyme (50 nM), FAPGG (50 μM)/nitrocefin (20 μM), AM-A (50 μM). Buffer (50 mM HEPES pH 7.5, 300 mM NaCl) was stirred overnight with 2 g/100 mL Chelex-100 (Biorad; Richmond, Calif.). Assays were read in 96-well microplate format at 490 nm using a Spectramax reader (Molecular Devices) at 37° C."}, "K. pneumoniae N11-2218 [2]": {"tested_on": "K. pneumoniae N11-2218", "test": "Microdilution checkerboard / MIC", "format": "cell-based, Klebsiella pneumoniae", "details": "checkerboard MIC, NDM-1 expressing CRE", "description": "(§1) FIC values were determined by standard methods^27 setting up checkerboards with 8 concentrations of each meropenem and AM-A in serial ½ dilutions. Experiments were done in duplicate and the mean used for calculation. The MIC for each compound was the lowest concentration of compound showing no growth. The FIC for each compound was calculated as the concentration of the compound in the presence of co-compound for a well showing no growth, divided by the MIC for that compound. The FIC index is the sum of the two FICs."}, "NDM-1": {"target": "NDM-1 (Klebsiella pneumoniae, UniProt C7C422)", "sequence (C7C422 29-270 limits assumed)": "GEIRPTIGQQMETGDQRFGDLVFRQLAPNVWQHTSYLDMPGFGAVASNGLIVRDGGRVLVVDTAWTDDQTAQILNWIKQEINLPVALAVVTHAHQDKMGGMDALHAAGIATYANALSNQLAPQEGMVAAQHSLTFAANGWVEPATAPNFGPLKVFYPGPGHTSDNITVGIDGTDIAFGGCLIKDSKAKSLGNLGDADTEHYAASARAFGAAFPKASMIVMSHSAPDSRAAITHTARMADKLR", "test": "Inactivation kinetics", "format": "biochemical", "set-up": "All β-lactamase overexpression constructs were generated without the leader peptide in a pET-28b plasmid containing a N-terminal His Tag; His tag (N, cleaved yes); SUMO (implied by the use of SUMO protease) (N, cleaved yes); made in house; host or cells: E. coli BL21(DE3)", "description": "(§2) NDM-1 (50 nM) was added to 20 μM nitrocefin containing AM-A in serial ½ dilutions from 8 μM. The assay was performed in 50 mM HEPES pH 7.5, 200 μL final volume. The assay was read in 96-well microplate format at 490 nm using a Spectramax reader (Molecular Devices) for 10 minutes at 37° C. VIM-2 (10 nM) was added to 20 μM nitrocefin containing AM-A in serial ½ dilutions from 16 μM. The assay was performed in 50 mM HEPES pH 7.5, 200 μL final volume. The assay was read in 96-well microplate format at 490 nm using a Spectramax reader (Molecular Devices) for 10 minutes at 37° C. as reported previously. For all assays experiments the offset between reaction initiation and the first read was ˜6s.\n(§3) Rate constants characterizing the inactivation of enzyme were calculated based on the dependence of the pseudo-first order rate constant, ki, upon AM-A concentration according to the following model:\n(§4) [formula] where E•Zn, A, E•Zn•A, and Zn•A are the active metalloenzyme, AM-A, the ternary metalloenzyme-AM-A complex, and AM-A-metal complex, respectively. Ki represents the dissociation constant of the ternary complex and k+2 is the rate constant for dissociation of ternary complex into inactivated enzyme (Einact) and AM-A-Zn complex. […]\n(§5) [formula] […] The individual values of Ki and k+2 were determined by fitting the value of ki to equation 2 as described previously^25: […]"}, "[3]": {"tested_on": "panel of 16 clinical CRE isolates", "test": "FIC index determination", "format": "cell-based, Enterobacteriaceae", "details": "meropenem and AM-A combinations; ≤0.5 defined as synergistic", "description": "as §1"}, "K. pneumoniae N11-2218 [4]": {"tested_on": "K. pneumoniae N11-2218", "test": "Mouse systemic infection, organ bacterial load", "format": "in vivo, CD1 mice", "description": "All animals were housed in specific pathogen-free units in the Central Animal Facility at McMaster University. All experimental protocols were approved by, and performed in accordance with the McMaster Animal Research Ethics Board. Female CD1 mice were purchased from Charles River.\nMice were infected intraperitoneally (ip) with a dose of 2×10^6 colony forming units (cfu) of Klebsiella pneumoniae N11-2218 for all organ bacterial load experiments, or with a dose of 5×10^7cfu for all survival experiments. For all organ bacterial load experiments, mice were euthanized 48 hours post infection, and spleen and liver were harvested. Organs were placed into 1 mL sterile PBS on ice, and then homogenized (Mixer Mill 400; Retsch). Organ homogenates were then serially diluted in PBS, and plated on Brilliant Green agar (Oxoid) for cfu enumeration. For survival curves, mice were monitored for endpoint. For all experiments, mice were treated 30 minutes post infection with a specified subcutaneous dose of either PBS, meropenem, AM-A inhibitor, or a combination of both antibiotic and inhibitor."}, "VIM-2": {"target": "T1, VIM-2 (Escherichia coli, UniProt Q5U7L7)", "T1 construct": "All β-lactamase overexpression constructs were generated without the leader peptide in a pET-28b plasmid containing a N-terminal His Tag; His tag (N); made in house; host or cells: E. coli BL21(DE3)", "test": "Inactivation kinetics", "format": "biochemical", "description": "as §2, §3, §4, §5"}},
  "data": [
    {"smiles": "N[C@H](CN[C@H](CN[C@@H](CC(=O)O)C(=O)O)C(=O)O)C(=O)O", "note": "[AM-A, aspergillomarasmine A]", "values": [
      {"measurement": "restoration of meropenem antibiotic activity", "setting": "[1]", "result": "restored meropenem activity"},
      {"measurement": "inhibition of activity in IMP-7", "setting": "IMP-7", "result": "~70", "unit": "%"},
      {"measurement": "synergy between meropenem and AM-A", "setting": "K. pneumoniae N11-2218 [2]", "result": "synergy"},
      {"measurement": "Ki", "setting": "NDM-1", "result": 11, "unit": "nM"},
      {"measurement": "k+2 (inactivation rate constant)", "setting": "NDM-1; time-dependent inactivation", "result": 0.0062, "unit": "s⁻¹"},
      {"measurement": "Fractional inhibitory concentration (FIC) index", "setting": "[3]", "result": "< 0.1"},
      {"measurement": "bacterial load in tissues", "setting": "K. pneumoniae N11-2218 [4]; AM-A alone", "result": "unaffected"},
      {"measurement": "bacterial load in the spleen", "setting": "K. pneumoniae N11-2218 [4]; combination meropenem 10 mg/kg + AM-A 10 mg/kg, single dose, 48 hours post infection", "result": "significantly reduced"},
      {"measurement": "Ki", "setting": "VIM-2", "result": 7, "unit": "nM"},
      {"measurement": "k+2 (inactivation rate constant)", "setting": "VIM-2; time-dependent inactivation", "result": 0.0065, "unit": "s⁻¹"}
    ]}
  ]
}
